According to PubChem BioAssay AID248 (DTP/NCI, 2004):
“And” between values parts separate entries of the source, which are not always exact repeats. Identical values can stand only once. Inconclusive results and toxic doses are left out. Rule as the data show it: active = T/C of 150% or more; inactive = T/C below 125%.

Tested on: L1210 leukemia ip in BDF1 mice, survival T/C
Experiment: NCI In Vivo Anticancer Drug Screen. Data for tumor model L1210 Leukemia (intraperitoneal) in B6D2F1 (BDF1) mice
Conditions: endpoint: mean survival time, higher = longer survival
Summary of the method: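 Tumor cells were implanted, animals were treated, and survival was followed. The result divides the treated measurement by the vehicle-control measurement.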

[1] = dose: 100.0 mg/kg/injection, schedule: Q01DX009 (ip), vehicle: Klucel (hydroxypropylcellulose) (HPC)
[2] = dose: 200.0 mg/kg/injection, schedule: Q01DX009 (ip), vehicle: Klucel (hydroxypropylcellulose) (HPC)
[3] = dose: 400.0 mg/kg/injection, schedule: Q01DX009 (ip), vehicle: Klucel (hydroxypropylcellulose) (HPC)
[4] = dose: 100.0 mg/kg/injection, schedule: Q01DX009 (ip), vehicle: saline with Tween-80
[5] = dose: 100.0 mg/kg/injection, schedule: Q04DX003 (ip), vehicle: Klucel (hydroxypropylcellulose) (HPC)
[6] = dose: 200.0 mg/kg/injection, schedule: Q01DX009 (ip), vehicle: saline with Tween-80
[7] = dose: 200.0 mg/kg/injection, schedule: Q04DX003 (ip), vehicle: Klucel (hydroxypropylcellulose) (HPC)
[8] = dose: 400.0 mg/kg/injection, schedule: Q04DX003 (ip), vehicle: Klucel (hydroxypropylcellulose) (HPC)
[9] = dose: 100.0 mg/kg/injection, schedule: Q01DX001 (ip), vehicle: saline

Measured: T/C

COC(=O)c1cc(NC(=O)Nc2ccc(F)c([N+](=O)[O-])c2)cc(C(=O)OC)c1
inactive: [1] 95 % of control | [2] 93 % of control | [3] 96 % of control

O=C1CC(=P(c2ccccc2)(c2ccccc2)c2ccccc2)C(=O)O1
inactive: dose: 50.0 mg/kg/injection, schedule: Q01DX009 (ip), vehicle: saline with Tween-80 103 % of control | [4] 103 % of control | [5] 93 % of control | [6] 100 % of control | [7] 95 % of control | [8] 93 % of control

OCC1OC(n2c3ccccc3c3ccccc32)C(O)C(O)C1O (stereo not drawn)
inactive: dose: 60.0 mg/kg/injection, schedule: Q04DX002 (ip), vehicle: DMSO 108 % of control | dose: 120.0 mg/kg/injection, schedule: Q04DX002 (ip), vehicle: DMSO 102 % of control

COc1ccc(Cl)cc1NC(=O)Nc1cccc(C(C)=O)c1
inactive: [1] 102 % of control | [2] 93 % of control | [3] 90 % of control

COc1cccc(CC(=O)NCCc2ccc(OC)c(OC)c2)c1
inactive: [4] 92 % of control | dose: 100.0 mg/kg/injection, schedule: Q04DX003 (ip), vehicle: saline with Tween-80 92 % of control | [6] 95 % of control | dose: 200.0 mg/kg/injection, schedule: Q04DX003 (ip), vehicle: saline with Tween-80 94 % of control | dose: 400.0 mg/kg/injection, schedule: Q01DX009 (ip), vehicle: saline with Tween-80 90 % of control | dose: 400.0 mg/kg/injection, schedule: Q04DX003 (ip), vehicle: saline with Tween-80 91 % of control

COc1ccccc1C(c1ccccc1OC)N(C)C(C)(C)CO
inactive: dose: 6.25 mg/kg/injection, schedule: Q01DX009 (ip), vehicle: saline sonified 102 % of control | dose: 12.5 mg/kg/injection, schedule: Q01DX009 (ip), vehicle: saline sonified 101 % of control | dose: 25.0 mg/kg/injection, schedule: Q01DX009 (ip), vehicle: saline sonified 106 % of control

O=C(CSc1cc(Cl)ccc1Cl)Nc1cccc(Br)c1
inactive: dose: 50.0 mg/kg/injection, schedule: Q04DX003 (ip), vehicle: other 86 % of control | dose: 100.0 mg/kg/injection, schedule: Q04DX003 (ip), vehicle: other 90 % of control and 92 % of control | dose: 200.0 mg/kg/injection, schedule: Q04DX003 (ip), vehicle: other 89 % of control | dose: 400.0 mg/kg/injection, schedule: Q04DX003 (ip), vehicle: other 87 % of control

CC(=O)c1cc(C(C)=O)c2cc(C)cc(O)c2c1O
inactive: [9] 103 % of control

CCC[CH2][Sn]([CH2]CCC)([O]C)[O]C
inactive: dose: 4.0 mg/kg/injection, schedule: Q01DX009 (ip), vehicle: Klucel (hydroxypropylcellulose) (HPC) 98 % of control | dose: 4.0 mg/kg/injection, schedule: Q04DX003 (ip), vehicle: Klucel (hydroxypropylcellulose) (HPC) 96 % of control | dose: 8.0 mg/kg/injection, schedule: Q01DX009 (ip), vehicle: Klucel (hydroxypropylcellulose) (HPC) 98 % of control | dose: 8.0 mg/kg/injection, schedule: Q04DX003 (ip), vehicle: Klucel (hydroxypropylcellulose) (HPC) 101 % of control | dose: 16.0 mg/kg/injection, schedule: Q01DX009 (ip), vehicle: Klucel (hydroxypropylcellulose) (HPC) 104 % of control | dose: 16.0 mg/kg/injection, schedule: Q04DX003 (ip), vehicle: Klucel (hydroxypropylcellulose) (HPC) 99 % of control

O=C(CC1NCCCC1O)Cn1cnc2cc3c(cc2c1=O)OCO3 (stereo not drawn)
inactive: dose: 5.0 mg/kg/injection, schedule: Q01DX009 (ip), vehicle: saline 117 % of control | dose: 5.0 mg/kg/injection, schedule: Q04DX003 (ip), vehicle: saline 105 % of control | dose: 10.0 mg/kg/injection, schedule: Q01DX009 (ip), vehicle: saline 122 % of control | dose: 10.0 mg/kg/injection, schedule: Q04DX003 (ip), vehicle: saline 105 % of control | dose: 20.0 mg/kg/injection, schedule: Q01DX009 (ip), vehicle: saline 95 % of control | dose: 20.0 mg/kg/injection, schedule: Q04DX003 (ip), vehicle: saline 117 % of control

CC1SC(c2ccccc2)N(c2ccccc2)C1=O (stereo not drawn)
inactive: [1] 98 % of control | [5] 100 % of control | [2] 114 % of control | [7] 98 % of control | [3] 106 % of control | [8] 100 % of control

CN(Cc1cnc2nc(N)c(Br)c(N)c2n1)c1ccc(C(=O)NC(CCC(=O)O)C(=O)O)cc1 (stereo not drawn)
inactive: dose: 100.0 mg/kg/injection, schedule: Q04DX002 (ip), vehicle: sodium bicarbonate 96 % of control | dose: 200.0 mg/kg/injection, schedule: Q04DX002 (ip), vehicle: sodium bicarbonate 96 % of control

CONC(=O)Nc1cccc2ccccc12
inactive: dose: 75.0 mg/kg/injection, schedule: Q01DX001 (ip), vehicle: other 100 % of control | dose: 75.0 mg/kg/injection, schedule: Q04DX003 (ip), vehicle: other 97 % of control | dose: 150.0 mg/kg/injection, schedule: Q01DX001 (ip), vehicle: other 110 % of control | dose: 150.0 mg/kg/injection, schedule: Q04DX003 (ip), vehicle: other 96 % of control | dose: 300.0 mg/kg/injection, schedule: Q01DX001 (ip), vehicle: other 106 % of control | dose: 300.0 mg/kg/injection, schedule: Q04DX003 (ip), vehicle: other 100 % of control

CS(=O)(=O)OCCCS(=O)(=O)O
inactive: [9] 102 % of control

c1ccc(-c2ccc([Si](c3ccc(-c4ccccc4)cc3)(c3ccc(-c4ccccc4)cc3)c3ccc(-c4ccccc4)cc3)cc2)cc1
inactive: dose: 12.5 mg/kg/injection, schedule: Q01DX009 (ip), vehicle: gum acacia 95 % of control | dose: 12.5 mg/kg/injection, schedule: Q04DX003 (ip), vehicle: gum acacia 106 % of control | dose: 25.0 mg/kg/injection, schedule: Q01DX009 (ip), vehicle: gum acacia 100 % of control | dose: 25.0 mg/kg/injection, schedule: Q04DX003 (ip), vehicle: gum acacia 95 % of control | dose: 50.0 mg/kg/injection, schedule: Q01DX009 (ip), vehicle: gum acacia 86 % of control | dose: 50.0 mg/kg/injection, schedule: Q04DX003 (ip), vehicle: gum acacia 92 % of control

CCCCCCCCNC(=O)c1ccc([N+](=O)[O-])s1
inactive: dose: 100.0 mg/kg/injection, schedule: Q01DX005 (ip), vehicle: saline 94 % of control | dose: 200.0 mg/kg/injection, schedule: Q01DX005 (ip), vehicle: saline 94 % of control | dose: 400.0 mg/kg/injection, schedule: Q01DX005 (ip), vehicle: saline 94 % of control

CCOC(=O)Cn1c(=O)c2ccccc2c2cc([N+](=O)[O-])ccc21
inactive: [5] 95 % of control | [7] 97 % of control | [8] 86 % of control

Cc1cc(C)c(C)c(OC(=O)Nc2cc(Cl)ccc2C)c1
inactive: [1] 94 % of control | [2] 94 % of control | [3] 95 % of control

COC(=O)C(Cc1[nH]c(N=Nc2ccc(Br)cc2)nc1N=Nc1ccc(Br)cc1)NC(=O)c1ccccc1 (stereo not drawn)
inactive: dose: 100.0 mg/kg/injection, schedule: Q01DX001 (ip), vehicle: saline with Tween-80 86 % of control | dose: 200.0 mg/kg/injection, schedule: Q01DX001 (ip), vehicle: saline with Tween-80 93 % of control | dose: 400.0 mg/kg/injection, schedule: Q01DX001 (ip), vehicle: saline with Tween-80 90 % of control
